Earlier results on one molecule are cited in patent publication US9078925B2, “Pharmaceutical semi-solid composition of isotretinoin” (GALEPHAR PHARMACEUTICAL RESEARCH, INC., priority 2012, dated 2015).

Read-outs that look alike come from different tables or passages of the source.

Assay in data set [1]: not given
This is another data set of the same source.

On to `CC1=C(/C=C/C(C)=C/C=C/C(C)=C\C(=O)O)C(C)(C)CCC1` [Isotretinoin, 13-cis retinoic acid], for which the “bioavailability after an oral intake” value is reported as 25% (fasted conditions) and 40% (fed conditions). Further, the “time to reach steady-state concentrations” value (of treatment) is given as 1 week. Besides, in data set [1], the solubility in water entry is on record as “poorly soluble in water”.
